We go through seven compounds from PubChem BioAssay (NCI).

Some test systems named below: CAKI-1 renal; DU-145 prostate; UO-31 renal; HOP-92 NSCLC; SW-620 colon; MDA-MB-435; ACHN renal; MCF7 breast; NCI/ADR-RES ovarian; SN12C renal.
Holding throughout (assay): NCI-60 cell line screen, 48 h

The structures appear in SMILES notation.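 1) Cells in 96-well plates. 2) Compound, 48 h, 5 concentrations. 3) Linear interpolation between surrounding doses. 4) Unreached endpoint = highest concentration. GI50 is the concentration that inhibits growth by half. The concentration for full growth arrest is given as TGI.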

In the case of `O=C(CNc1ncco1)Nc1ccc(S(=O)(=O)c2ccc(NC(=O)CNc3ncco3)cc2)cc1`, the GI50 was 1.56 µM in the test with CAKI-1 renal; 4.79 µM with DU-145 prostate; 3.03 µM in the test on UO-31 renal; 3.37 µM in the test on HOP-92 NSCLC; 1.75 µM in the test with SW-620 colon; 2.08 µM in the test on MDA-MB-435. The GI50 in the test with ACHN renal is 2.23 µM; in the test on MCF7 breast, 1.34 µM; in the test with NCI/ADR-RES ovarian, 3.02 µM; with SN12C renal it was 3.77 µM. Moreover, the TGI with CAKI-1 renal came to 3.28 µM; in the test with DU-145 prostate it was 16.4 µM; in the test with UO-31 renal, 17.3 µM; with HOP-92 NSCLC, 13 µM; with SW-620 colon it was 4.13 µM; with MDA-MB-435, 7.26 µM. For the same compound, the TGI in the test on ACHN renal turned out to be 6.23 µM; with MCF7 breast it was 5.66 µM; in the test on NCI/ADR-RES ovarian it was 19.6 µM; in the test on SN12C renal, 14.7 µM.
With `COc1ccc(-c2nnc(N3CCN(C(=O)CN4CCN(c5ccc(Cl)cc5)CC4)CC3)nc2-c2ccc(OC)cc2)cc1`, the GI50 with CAKI-1 renal is 28.5 µM; in the test on DU-145 prostate, more than 100 µM; in the test on UO-31 renal, 6.92 µM; in the test with HOP-92 NSCLC, 16.2 µM; with SW-620 colon, 57.9 µM; in the test on MDA-MB-435, 66.1 µM. Further, the GI50 was 22.9 µM with ACHN renal, 5.82 µM in the test with MCF7 breast, 20.7 µM with NCI/ADR-RES ovarian and 17.8 µM in the test on SN12C renal. Besides, the TGI is more than 100 µM in the test with CAKI-1 renal; more than 100 µM with DU-145 prostate; more than 100 µM with UO-31 renal; 39.1 µM with HOP-92 NSCLC; more than 100 µM in the test with SW-620 colon; more than 100 µM in the test on MDA-MB-435. Besides, the TGI in the test with ACHN renal, in the test on MCF7 breast, in the test with NCI/ADR-RES ovarian and in the test on SN12C renal was more than 100 µM in each case.
On to `OCC#Cc1ccccc1C#Cc1ccc(C#Cc2ccccc2C#CCO)s1`, for which the GI50 is 12.1 µM with CAKI-1 renal; 14.9 µM in the test with DU-145 prostate; 18.1 µM in the test on UO-31 renal; 15.6 µM with HOP-92 NSCLC; 18.4 µM with SW-620 colon; 15.1 µM in the test on MDA-MB-435. Besides, the GI50 is 19.1 µM in the test with ACHN renal, 29.9 µM with MCF7 breast, 21.1 µM with NCI/ADR-RES ovarian and 20.1 µM with SN12C renal. Further, the TGI was 25.1 µM with CAKI-1 renal; 28.1 µM in the test with DU-145 prostate; 36 µM in the test with UO-31 renal; 29.7 µM in the test with HOP-92 NSCLC; 37.3 µM with SW-620 colon; 29.2 µM in the test on MDA-MB-435. For the same compound, the TGI in the test on ACHN renal is 43.3 µM; in the test with MCF7 breast, more than 100 µM; with NCI/ADR-RES ovarian it was 36 µM; in the test with SN12C renal, 43 µM.
For `Oc1c(I)cc(-c2nc3ccccc3s2)cc1CN(Cc1ccccn1)Cc1ccccn1`, the GI50 in the test with CAKI-1 renal was 0.413 µM; in the test on DU-145 prostate, 0.616 µM; in the test with UO-31 renal, 0.272 µM; with HOP-92 NSCLC, 0.273 µM; with SW-620 colon it was 0.402 µM; in the test on MDA-MB-435, 0.428 µM. The GI50 with ACHN renal is 0.286 µM; with MCF7 breast, 0.34 µM; in the test on NCI/ADR-RES ovarian, 0.411 µM; with SN12C renal, 0.446 µM. In addition, the TGI was 2.47 µM with CAKI-1 renal; more than 100 µM in the test with DU-145 prostate; 2.35 µM in the test with UO-31 renal; 5.45 µM with HOP-92 NSCLC; 3.32 µM in the test with SW-620 colon; 14.3 µM with MDA-MB-435. Further, the TGI in the test on ACHN renal amounted to 3.37 µM; in the test on MCF7 breast, 35 µM; with NCI/ADR-RES ovarian, 2.93 µM; in the test on SN12C renal it was 11.6 µM.
As for `CCCCCCC#CC#Cc1cccc(=O)o1`, the GI50 in the test on CAKI-1 renal is 3.4 µM; with DU-145 prostate it was 3.31 µM; with UO-31 renal, 3.26 µM; with HOP-92 NSCLC, 3.24 µM; with SW-620 colon, 0.974 µM; in the test with MDA-MB-435, 1.39 µM. Also, the GI50 with ACHN renal was 1.84 µM; in the test with MCF7 breast, 2.22 µM; with NCI/ADR-RES ovarian, 2.59 µM; in the test with SN12C renal, 1.31 µM. The TGI in the test with CAKI-1 renal is 9.2 µM; in the test on DU-145 prostate, 8.26 µM; in the test on UO-31 renal, more than 27.4 µM; with HOP-92 NSCLC it was 8.92 µM; in the test on SW-620 colon it was 2.78 µM; in the test with MDA-MB-435, 3.28 µM. The TGI with ACHN renal was determined as 3.96 µM; in the test on MCF7 breast, 22.3 µM; in the test with NCI/ADR-RES ovarian, 15.7 µM; in the test on SN12C renal, 2.97 µM.
For `O=S(=O)(NCCNc1cc(-c2cn(-c3ccccc3)nc2-c2cccc(O)c2)ccn1)c1ccc(Cl)cc1`, the GI50 with CAKI-1 renal was 4.46 µM; with DU-145 prostate, 3.6 µM; in the test on UO-31 renal, 2.92 µM; in the test on HOP-92 NSCLC, 2.34 µM; in the test on SW-620 colon, 3.69 µM; in the test on MDA-MB-435, 2.86 µM. Besides, the GI50 in the test on ACHN renal was 2.63 µM; in the test on MCF7 breast, 2.74 µM; in the test on NCI/ADR-RES ovarian, 2.84 µM; in the test on SN12C renal, 3.47 µM. Further, the TGI with CAKI-1 renal is more than 100 µM; in the test on DU-145 prostate, 21.3 µM; in the test with UO-31 renal, 12.1 µM; in the test on HOP-92 NSCLC it was 8.35 µM; in the test with SW-620 colon it was 18.9 µM; with MDA-MB-435, 10.1 µM. Moreover, the TGI with ACHN renal came out at 10.3 µM; in the test with MCF7 breast it was 9.43 µM; in the test with NCI/ADR-RES ovarian it was 13.4 µM; in the test on SN12C renal, 14 µM.
Take `C[C@]12C3CC[C@@]4(CO)C[C@]3(CCC1[C@](C)(C(=O)O)CC[C@@H]2O)CC4=O` (stereo not given in full): the GI50 in the test with CAKI-1 renal, in the test on DU-145 prostate, in the test on UO-31 renal, in the test with HOP-92 NSCLC, in the test with SW-620 colon and in the test on MDA-MB-435 was more than 100 µM in each case. The GI50 in the test on ACHN renal, in the test on MCF7 breast, in the test on NCI/ADR-RES ovarian and in the test on SN12C renal was more than 100 µM each time. For the same compound, the TGI with CAKI-1 renal, in the test with DU-145 prostate, with UO-31 renal, with HOP-92 NSCLC, with SW-620 colon and with MDA-MB-435 was more than 100 µM throughout. Moreover, the TGI with ACHN renal, with MCF7 breast, with NCI/ADR-RES ovarian and in the test on SN12C renal was more than 100 µM throughout.
